Measurements taken from ChEMBL document CHEMBL4422618, “Translational impact of novel widely pharmacological characterized mofezolac-derived COX-1 inhibitors combined with bortezomib on human multiple myeloma cell lines viability” (Eur J Med Chem, 2019).
The source made the active and inactive calls. The rule behind the calls is not given here.

Columns and labels:
[1] = target: T1, Prostaglandin G/H synthase 2 (Homo sapiens, UniProt P35354); experiment: Inhibition of human COX2 using arachidonic acid as substrate by colorimetric assay
T1 sequence (P35354 whole entry): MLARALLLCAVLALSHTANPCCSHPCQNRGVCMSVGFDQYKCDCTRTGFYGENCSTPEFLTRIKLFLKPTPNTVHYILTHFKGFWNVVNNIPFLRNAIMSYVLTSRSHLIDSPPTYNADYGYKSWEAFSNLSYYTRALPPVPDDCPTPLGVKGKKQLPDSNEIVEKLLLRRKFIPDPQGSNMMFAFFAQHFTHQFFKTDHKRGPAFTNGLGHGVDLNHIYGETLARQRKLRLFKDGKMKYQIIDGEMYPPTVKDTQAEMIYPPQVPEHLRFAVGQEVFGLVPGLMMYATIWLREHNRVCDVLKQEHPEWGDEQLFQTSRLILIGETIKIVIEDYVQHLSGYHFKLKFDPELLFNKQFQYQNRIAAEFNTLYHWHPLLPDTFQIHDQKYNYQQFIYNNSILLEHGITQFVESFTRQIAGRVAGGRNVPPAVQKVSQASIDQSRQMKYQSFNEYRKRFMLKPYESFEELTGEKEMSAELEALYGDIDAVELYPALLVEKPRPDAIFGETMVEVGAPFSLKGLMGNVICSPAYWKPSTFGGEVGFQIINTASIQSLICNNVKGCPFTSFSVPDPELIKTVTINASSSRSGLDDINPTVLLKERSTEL

NCI-H929 [2] = experiment: Cell cycle arrest in human NCI-H929 cells assessed as accumulation at S phase at 42 nM in presence of bortezomib after 48 hrs by propidium iodide/RNase staining based flow cytometric method relative to bortezomib alone; assay type: functional
NCI-H929 [3] = experiment: Induction of apoptosis in human NCI-H929 cells assessed as necrotic cells at 42 nM after 48 hrs in presence of bortezomib by Annexin-V/propidium iodide staining based flow cytometric method (reference value: 0.0034%); assay type: functional
RPMI-8226 = experiment: Cell cycle arrest in human RPMI8226 cells assessed as accumulation at S phase at 42 nM after 48 hrs by propidium iodide/RNase staining based flow cytometric method; assay type: functional
Platelet = experiment: Antiplatelet activity in human platelet rich plasma assessed as inhibition of arachidonic acid-induced platelet aggregation preincubated for 2 mins followed by arachidonic acid addition by turbidimetric method; assay type: functional, cell-based

IC50 [1]: > 50000 nM
IC50 (Platelet): 630 nM
SMILES: C=Cc1onc(-c2ccc(OC)cc2)c1-c1ccc(OC)cc1
Activity (NCI-H929 [2]): 15%
Activity (NCI-H929 [3]): 0%
Activity (RPMI-8226): inactive
